Values of other authors in patent US20110064711A1, “COMPOSITIONS CONTAINING COENZYME Q-10 AND AN ANTIOXIDANT” (priority 2009, published 2011).

Conditions: exposure to ambient air; general statement, time not given

reduced form of CoQ10 on a weight basis after exposure to air: below 20%
SMILES: COc1c(O)c(C)c(C/C=C(\C)CC/C=C(\C)CC/C=C(\C)CC/C=C(\C)CC/C=C(\C)CC/C=C(\C)CC/C=C(\C)CC/C=C(\C)CC/C=C(\C)CCC=C(C)C)c(O)c1OC [Commercial reduced CoQ10 powder]
